Test results: patent publication US8637568B2, “Serotonin reuptake inhibitors” (Theravance, Inc., priority 2010, dated 2014)

Each compound was assayed against T1, human recombinant SERT (HEK293-hSERT cells) (Homo sapiens, UniProt P31645) (assay: hSERT neurotransmitter uptake assay). Conditions: serotonin reuptake inhibition in HEK293-hSERT cells.
T1 construct: expressed in transfected cells; host or cells: HEK293 (stably transfected), whole cells
Assay type: cell-based
Procedure: HEK293 cells stably-transfected with human recombinant SERT (HEK293-hSERT) were grown in Dulbecco's Modified Eagle's Medium supplemented with 10% dialyzed fetal bovine serum, 100 µg/ml penicillin, 100 µg/ml streptomycin, 2 mM L-glutamine, and 250 μg/ml of the aminoglycoside antibiotic G418. Cells were incubated in a 5% CO2, humidified incubator at 37° C.
In pre-incubation studies, test compound was added to cells for 30 minutes at 37° C. prior to the addition of fluorescent substrate. […] For real-time measurements, compounds were either preincubated (as above) or mixed with substrate prior to addition, and kinetic measurements, relative fluorescence units (RFU integrated over 0.5 ms),were made using a cycle time of 1 min.

T1 sequence (P31645 whole entry): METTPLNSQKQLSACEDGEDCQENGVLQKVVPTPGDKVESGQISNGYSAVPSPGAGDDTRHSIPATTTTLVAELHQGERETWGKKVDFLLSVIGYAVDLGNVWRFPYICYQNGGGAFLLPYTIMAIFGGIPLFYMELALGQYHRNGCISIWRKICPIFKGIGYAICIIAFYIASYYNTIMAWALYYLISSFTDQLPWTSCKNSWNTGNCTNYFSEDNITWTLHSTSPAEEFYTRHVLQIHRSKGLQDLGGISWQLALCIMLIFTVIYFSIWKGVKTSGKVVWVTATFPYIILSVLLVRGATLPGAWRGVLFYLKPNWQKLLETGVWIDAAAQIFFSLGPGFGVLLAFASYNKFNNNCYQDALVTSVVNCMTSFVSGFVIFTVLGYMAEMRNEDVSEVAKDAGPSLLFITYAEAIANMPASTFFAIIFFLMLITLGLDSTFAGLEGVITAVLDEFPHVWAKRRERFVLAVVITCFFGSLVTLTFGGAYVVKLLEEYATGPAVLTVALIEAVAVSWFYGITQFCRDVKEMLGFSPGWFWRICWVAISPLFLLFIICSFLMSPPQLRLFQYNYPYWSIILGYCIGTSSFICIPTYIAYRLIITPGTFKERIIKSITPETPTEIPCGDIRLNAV

SERT pIC50, ≧7.0:
NC(=O)NS(=O)(=O)NC[C@@H](Oc1ccc(C(F)(F)F)cc1)[C@H]1CCNC1 [Example 3-10, N[(S)-2-(S)-pyrrolidin-3-yl-2-(4-trifluoromethylphenoxy)ethyl]sulfonylurea]

Same assay, conditions: serotonin reuptake inhibition in HEK293-hSERT cells; read-out: SERT pIC50 (converted)

IC50, ≤ 10 nM:
NS(=O)(=O)c1ccc(S(=O)(=O)NCC(Oc2ccc(C(F)(F)F)cc2)C2CCNC2)cc1 [Example 3-30, Benzene-1,4-disulfonic acid lamide 4-{[(S)-2-(S)-pyrrolidin-3-yl-2-(4-trifluoromethylphenoxy)ethyl]amide}]
CS(=O)(=O)c1ccccc1S(=O)(=O)NC[C@@H](Oc1ccc(C(F)(F)F)cc1)[C@H]1CCNC1 [Example 3-29, 2-Methanesulfonyl-N-[(S)-2-(S)-pyrrolidin-3-yl-2-(4-trifluoromethylphenoxy)ethyl]benzenesulfonamide]
O=S(=O)(NC[C@@H](Oc1ccc(C(F)(F)F)cc1)[C@H]1CCNC1)c1cccc2nonc12 [Example 3-16, Benzo[1,2,5]oxadiazole-4-sulfonic acid [(S)-2-(S)-pyrrolidin-3-yl-2-(4-trifluoromethylphenoxy)ethyl]amide]
CCS(=O)(=O)NC[C@@H](Oc1ccc(C(F)(F)F)cc1)[C@H]1CCNC1 [Example 3-5, Ethanesulfonic acid [(S)-2-(S)-pyrrolidin-3-yl-2-(4-trifluoromethylphenoxy)-ethyl]amide]
NS(=O)(=O)C[C@@H](Oc1ccc(C(F)(F)F)cc1)[C@H]1CCNC1 [Example 4, (S)-2-(S)-Pyrrolidin-3-yl-2-(4-trifluoromethylphenoxy)ethanesulfonic Acid Amide]
CN(C[C@@H](Oc1ccc(C(F)(F)F)cc1)[C@H]1CCNC1)S(C)(=O)=O [Example 3-3, N-Methyl-N-[(S)-2-(S)-pyrrolidin-3-yl-2-(4-trifluoromethylphenoxy)ethyl]-methanesulfonamide]
O=S(=O)(NC[C@@H](Oc1ccc(C(F)(F)F)cc1)[C@H]1CCNC1)c1ccc(-c2cnco2)cc1 [Example 2, 4-Oxazol-5-yl-N—[(S)-2-(S)-pyrrolidin-3-yl-2-(4-trifluoromethylphenoxy)ethyl]benzenesulfonamide]
CC(=O)Nc1cccc(S(=O)(=O)NC[C@@H](Oc2ccc(C(F)(F)F)cc2)[C@H]2CCNC2)c1 [Example 3-26, N-{3-[(S)-2-(S)-Pyrrolidin-3-yl-2-(4-trifluoromethylphenoxy)ethylsulfamoyl]phenyl}acetamide]
N#Cc1ccc(S(=O)(=O)NC[C@@H](Oc2ccc(C(F)(F)F)cc2)[C@H]2CCNC2)cc1 [Example 3-20, 4-Cyano-N-[(S)-2-(S)-pyrrolidin-3-yl-2-(4-trifluoromethylphenoxy)ethyl]benzenesulfonamide]
COCCc1ccc(S(=O)(=O)NC[C@@H](Oc2ccc(C(F)(F)F)cc2)[C@H]2CCNC2)cc1 [Example 3-24, 4-(2-Methoxyethyl)-N-[(S)-2-(S)-pyrrolidin-3-yl-2-(4-trifluoromethylphenoxy)ethyl]benzenesulfonamide]
O=S(=O)(NC[C@@H](Oc1ccc(C(F)(F)F)cc1)[C@H]1CCNC1)c1ccc(-c2ncccn2)cc1 [Example 3-34, 4-Pyrimidin-2-yl-N-[(S)-2-(S)-pyrrolidin-3-yl-2-(4-trifluoromethylphenoxy)ethyl]benzenesulfonamide]
CNS(=O)(=O)c1ccc(S(=O)(=O)NCC(Oc2ccc(C(F)(F)F)cc2)C2CCNC2)cc1 [Example 3-31, Benzene-1,4-disulfonic acid 1-methylamide 4-{[(S)-2-(S)-pyrrolidin-3-yl-2-(4-trifluoromethylphenoxy)ethyl]amide}]
CN(C)S(=O)(=O)NC[C@@H](Oc1ccc(C(F)(F)F)cc1)[C@H]1CCNC1 [Example 3-11]
O=S(=O)(NC[C@@H](Oc1ccc(C(F)(F)F)cc1)[C@H]1CCNC1)N1CCOCC1 [Example 3-17, Morpholine-4-sulfonic acid [(S)-2-(S)-pyrrolidin-3-yl-2-(4-trifluoromethylphenoxy)ethyl]amide]
O=S(=O)(NC[C@@H](Oc1ccc(C(F)(F)F)cc1)[C@H]1CCNC1)c1ccccc1 [Example 3-19, N-[(S)-2-(S)-Pyrrolidin-3-yl-2-(4-trifluoromethylphenoxy)ethyl]benzenesulfonamide]
CN(C)S(=O)(=O)C[C@@H](Oc1ccc(C(F)(F)F)cc1)[C@H]1CCNC1 [Example 7-1, (S)-2-(S)-Pyrrolidin-3-yl-2-(4-trifluoromethylphenoxy)ethanesulfonic acid dimethylamide]
CS(=O)(=O)c1ccc(S(=O)(=O)NC[C@@H](Oc2ccc(C(F)(F)F)cc2)[C@H]2CCNC2)cc1 [Example 3-27, 4-Methanesulfonyl-N-[(S)-2-(S)-pyrrolidin-3-yl-2-(4-trifluoromethylphenoxy)ethyl]benzenesulfonamide]
O=S(=O)(C[C@@H](Oc1ccc(C(F)(F)F)cc1)[C@H]1CCNC1)NCc1ccccc1 [Example 5, (S)-2-(S)-Pyrrolidin-3-yl-2-(4-trifluoromethylphenoxy)ethanesulfonic Acid Benzylamide]
O=[N+]([O-])c1ccc(S(=O)(=O)NC[C@@H](Oc2ccc(C(F)(F)F)cc2)[C@H]2CCNC2)cc1 [Example 3-22, 4-Nitro-N-[(S)-2-(S)-pyrrolidin-3-yl-2-(4-trifluoromethylphenoxy)ethyl]benzenesulfonamide]
O=S(=O)(NC[C@@H](Oc1ccc(C(F)(F)F)cc1)[C@H]1CCNC1)c1ccc(-n2cccn2)cc1 [Example 3-32, 4-Pyrazol-1-yl-N-[(S)-2-(S)-pyrrolidin-3-yl-2-(4-trifluoromethylphenoxy)ethyl]benzenesulfonamide]
O=S(=O)(NC[C@@H](Oc1ccc(C(F)(F)F)cc1)[C@H]1CCNC1)C1CC1 [Example 3-8, Cyclopropanesulfonic acid [(S)-2-(S)-pyrrolidin-3-yl-2-(4-trifluoromethylphenoxy)ethyl]amide]
CNS(=O)(=O)C[C@@H](Oc1ccc(C(F)(F)F)cc1)[C@H]1CCNC1 [Example 6, (S)-2-(S)-Pyrrolidin-3-yl-2-(4-trifluoromethylphenoxy)ethanesulfonic Acid Methylamide]
Cc1cc(C)n(-c2ccc(S(=O)(=O)NCC(Oc3ccc(C(F)(F)F)cc3)C3CCNC3)cc2)n1 [Example 3-33, 4-(3,5-Dimethyl-pyrazol-1-yl)-N-(S)-2-(S)-pyrrolidin-3-yl-2-(4-trifluoromethylphenoxy)ethyl]benzenesulfonamide]
CNC(=O)c1cccc(S(=O)(=O)NCC(Oc2ccc(C(F)(F)F)cc2)C2CCNC2)c1 [Example 3-25, N-Methyl-3-[(S)-2-(S)--pyrrolidin-3-yl-2-(4-trifluoromethylphenoxy)ethylsulfamoyl]benamide]
COc1ccc(S(=O)(=O)NCC(Oc2ccc(C(F)(F)F)cc2)C2CCNC2)cc1 [Example 3-23, 4-Methoxy-N-[(S)-2-(S)-pyrrolidin-3-yl-2-(4-trifluoromethylphenoxy)ethyl]bensenesulfonamide]
O=S(=O)(NC[C@@H](Oc1ccc(C(F)(F)F)cc1)[C@@H]1CCNC1)c1ccccc1 (stereo in doubt) [Example 3-18, N-[(R)-2-(S)-Pyrrolidin-3-yl-2-(4-trifluoromethylphenoxy)ethyl]benzenesulfonamide]
CNS(=O)(=O)N(C)C[C@@H](Oc1ccc(C(F)(F)F)cc1)[C@H]1CCNC1 [Example 1]

IC50, ≤ 100 nM:
Cn1cncc1S(=O)(=O)NC[C@@H](Oc1ccc(C(F)(F)F)cc1)[C@H]1CCNC1 [Example 3-14, 3-Methyl-3H-imidazole-4-sulfonic acid [(S)-2-(S)-pyrrolidin-3-yl-2-(4-trifluoromethylphenoxy)ethyl]amide]
O=S(=O)(NC[C@@H](Oc1ccc(C(F)(F)F)cc1)[C@H]1CCNC1)c1ncn[nH]1 [Example 3-15]
O=S(=O)(NCC(Oc1ccc(C(F)(F)F)cc1)C1CCNC1)c1ccc(-c2nnn[nH]2)cc1 [Example 3-35, N[(S)-2-(S)-Pyrrolidin-3-yl-2-(4-trifluoromethylphenoxy)ethyl]-4-(1H-tetrazol-5-yl)-benzenesulfonamide]
CS(=O)(=O)NC[C@@H](Oc1ccc(C(F)(F)F)cc1)[C@@H]1CCNC1 (stereo in doubt) [Example 3-2, N-[(R)-2-(S)-Pyrrolidin-3-yl-2-(4-trifluoromethylphenoxy)ethyl]-methanesulfonamide]
CC(C)S(=O)(=O)NC[C@@H](Oc1ccc(C(F)(F)F)cc1)[C@H]1CCNC1 [Example 3-7, Propane-2-sulfonic acid [(S)-2-(S)-pyrrolidin-3-yl-2-(4-trifluoromethylphenoxy)ethyl]amide]
O=S(=O)(NC[C@@H](Oc1ccc(C(F)(F)F)cc1)[C@H]1CCNC1)c1cnc[nH]1 [Example 3-13, 3H-Imidazole-4-sulfonic acid [(S)-2-(S)-pyrrolidin-3-yl-2-(4-trifluoromethylphenoxy)ethyl]amide]
CS(=O)(=O)c1cccc(S(=O)(=O)NC[C@@H](Oc2ccc(C(F)(F)F)cc2)[C@H]2CCNC2)c1 [Example 3-28, 3-Methanesulfonyl-N-[(S)-2-(S)-pyrrolidin-3-yl-2-(4-trifluoromethylphenoxy)ethyl]benzenesulfonamide]
